Laboratory results as given in patent US20150328109A1, “DERMAL COMPOSITIONS CONTAINING UNNATURAL HYGROSCOPIC AMINO ACIDS” (MEDPHARM LIMITED, priority 2012, published 2015).

System: RHE tissues
Test: RHE irritation assessment Method 1: SkinEthic Skin Irritation Test-42 bis assay (MTT), plus 24 h contact time
Type: cell-based, human
Conditions: 42 min and 24 h exposure; 5 and 1% w/v α-H-G, 10 and 1% w/v L-h-S in water
Source text: The purpose of this experiment was to investigate the potential of alpha-hydroxyglycine (α-H-G) and L-homoserine (L-h-S) to cause skin irritation. The method was based on the validated SOP for the “The SkinEthic Skin Irritation Test-42 bis assay” in accordance to OECD guideline Test No. 439: In Vitro Skin Irritation. The protocol is provided in Section 1.2. Further details on the method can be found in the SkinEthic™ RHE SOP, Version 2.1 (July 2009), SkinEthic skin irritation test-42 bis test method for the prediction of acute skin irritation of chemicals: 42 minutes application+42 hours post-incubation. Available at: [http://ecvam.jrc.ec.europa.eu].
In addition, a further experiment was performed where the contact time of the test solution with the tissue was increased to 24 h. Following which point an MTT assay was used to determine the tissue viability and the test solutions potential to cause irritation.
The following steps were completed on receipt of the tissues: • (i) Wells of 6-well plates were filled with 1 mL growth culture medium. • (ii) Tissue were removed from their packaging, cleaned to remove the transport agarose and inspected for signs of damage; damaged tissues were discarded. • (iii) The tissue were transferred into the growth culture medium then incubated at 37° C., 5% CO2 until application of the test solution.
1.2.1.1.6 Applications of 5 and 1% w/v α-H-G and 10 and 1% w/v L-h-S and Controls • (i) 16 μL±0.5 μL of the test solutions (5% w/v α-hydroxyglycine (α-H-G) in water, 1% w/v α-hydroxyglycine (α-H-G) in water, 10% w/v L-homoserine (L-h-S) in water, 1% w/v L-homoserine (L-h-S) in water) and negative (PBS) and positive (5% SDS) controls were dispensed onto the top of the epidermal tissue, using positive displacement pipette. […]

SMILES: N[C@@H](CCO)C(=O)O [L-homoserine]
- skin irritation potential (viability below 50% of negative control = irritant): non-irritants
